Columns and labels:
[1] = in vivo
[2] = tested on: severe atopic dermatitis patients; assay: Clinical test: objective SCORAD index in atopic dermatitis patients; conditions: FIG. 17
[3] = tested on: IgE; assay: Total serum IgE (ELISA); format: in vivo, mice; conditions: administered alone, compared with the control
Protocol: Since the major symptoms of atopic dermatitis were associated with strong Th2 immune response, IgE was produced at an excessive amount. Therefore, either glucosamine or tacrolimus was administered alone to the atopy-induced mice, or glucosamine and tacrolimus were administered in combination to measure a level of IgE in the serum. After one week had elapsed after the final administration, sera were obtained from the mice, and a total level of IgE was measured using an ELISA kit (Yamasa, Tokyo, Japan).

[4] = tested on: IFN-g, IL-4, IL-5; assay: Immunosuppressive effects of immunosuppressants administered alone (IFN-g, IL-4, IL-5 concentrations); format: cell-based; conditions: FIGS. 24 to 26
From the text: Further, immunosuppressive effects according to the kinds of immunosuppressants were further confirmed through experiments conducted to determine a proper dosage concentration.

[5] = Minimum and maximum doses from experiments conducted at a cell level; format: cell-based; conditions: no difference in inhibition level

blood glucosamine concentrations, animals versus humans [1]	Structure (SMILES)	change in SCORAD indexes ([2]; glucosamine administered alone, November 10 to November 24)	therapeutic effect (SCORAD indexes), summary ([2]; single versus combined administration)	total level of IgE in the serum [3]	immunosuppressive effect (changes in concentrations of IFN-g, IL-4, IL-5) [4]	dose required relative to cyclosporine [5]
no significant difference	N[C@H]1C(O)O[C@H](CO)[C@@H](O)[C@@H]1O (stereo partly shown) [glucosamine]	no change	poor therapeutic effect	no clear difference		
	C=CC[C@@H]1/C=C(\C)C[C@H](C)C[C@H](OC)[C@H]2O[C@@](O)(C(=O)C(=O)N3CCCC[C@H]3C(=O)O[C@H](/C(C)=C/[C@@H]3CC[C@@H](O)[C@H](OC)C3)[C@H](C)[C@@H](O)CC1=O)[C@H](C)C[C@@H]2OC [tacrolimus]			no clear difference	suppressed an immune response	lower dose than cyclosporine by a factor of 10
